Reference: PMC9603770, “Broad-Spectrum Inhibitors against Class A, B, and C Type β-Lactamases to Block the Hydrolysis against Antibiotics: Kinetics and Structural Characterization” (Microbiology Spectrum, 2022)

Experiments:
[1] = biological target: T1, KPC-2 (Klebsiella pneumoniae, UniProt Q9F663); assay: Steady-state kinetics of antibiotic hydrolysis with inhibitor; assay type: biochemical; details: inhibitor concentration as per IC50
T1 construct: made in house; host or cells: E. coli (DH5 and BL21(DE3) named; pET-28a)
T1 sequence (Q9F663 25-293, looked up, species assumed): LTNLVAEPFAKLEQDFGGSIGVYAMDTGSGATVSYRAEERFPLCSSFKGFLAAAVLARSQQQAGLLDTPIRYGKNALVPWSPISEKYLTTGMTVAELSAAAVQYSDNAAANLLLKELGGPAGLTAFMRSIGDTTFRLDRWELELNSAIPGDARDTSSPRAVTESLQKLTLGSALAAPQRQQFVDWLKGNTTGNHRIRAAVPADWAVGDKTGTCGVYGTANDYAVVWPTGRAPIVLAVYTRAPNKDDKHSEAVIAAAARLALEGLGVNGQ
Procedure: (§1) The enzyme kinetics parameters (Km, and kcat) for all six proteins/enzymes in combination with different antibiotics (cefotaxime, imipenem, and meropenem), were calculated. The concentration of inhibitors, D63, D2148, and D2573, was as per the IC50 value (Fig. 5); the kinetic parameters are listed in Table 8.
(§2) The steady-state kinetics of all six proteins were determined using the antibiotics:imipenem (Δε295 = −11,500 M^−1 cm^−1), meropenem (Δε297 = −10,940 M^−1 cm^−1), and cefotaxime (Δε264 = −27,250 M^−1 cm^−1). In this study, the D63, D2148, and D2573 inhibitors were tested. Hydrolysis of β-lactam antibiotics was detected by monitoring the variation in absorbance due to cleavage of the β-lactam ring in 50 mM, pH 7.0, phosphate buffer ([40], [41]). For hydrolysis of substrate (cefotaxime, imipenem, and meropenem) kinetics parameters, Km and kcat were calculated by using Michaelis Menten equations (equations 2 and 3). (2) V =Vmax [S]/Km + [S] (3) kcat = Vmax/E where E and S are the enzyme and substrate concentration, Km is the Michaelis-Mentent constant, kcat is the turnover number, and V and Vmax are the initial and maximum velocity of the hydrolysis, respectively.

[2] = biological target: T2, SHV-1 (Klebsiella pneumoniae, UniProt P0AD64); assay: as above; assay type: biochemical; details: inhibitor concentration as per IC50
T2 construct: made in house; host or cells: E. coli (DH5 and BL21(DE3) named; pET-28a)
T2 sequence (P0AD64 22-286): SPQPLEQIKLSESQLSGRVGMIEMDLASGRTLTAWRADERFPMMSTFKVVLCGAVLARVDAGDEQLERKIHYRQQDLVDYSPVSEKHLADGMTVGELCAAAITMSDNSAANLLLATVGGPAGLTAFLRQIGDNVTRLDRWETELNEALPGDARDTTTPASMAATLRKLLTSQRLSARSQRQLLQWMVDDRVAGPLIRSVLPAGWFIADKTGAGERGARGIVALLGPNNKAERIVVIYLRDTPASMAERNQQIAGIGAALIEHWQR
Procedure: as §1, §2

[3] = biological target: T3, CTX-M-15 (Escherichia coli, UniProt Q9EXV5); assay: as above; assay type: biochemical; details: inhibitor concentration as per IC50
T3 construct: made in house; host or cells: E. coli (DH5 and BL21(DE3) named)
T3 sequence (Q9EXV5 29-291, species assumed): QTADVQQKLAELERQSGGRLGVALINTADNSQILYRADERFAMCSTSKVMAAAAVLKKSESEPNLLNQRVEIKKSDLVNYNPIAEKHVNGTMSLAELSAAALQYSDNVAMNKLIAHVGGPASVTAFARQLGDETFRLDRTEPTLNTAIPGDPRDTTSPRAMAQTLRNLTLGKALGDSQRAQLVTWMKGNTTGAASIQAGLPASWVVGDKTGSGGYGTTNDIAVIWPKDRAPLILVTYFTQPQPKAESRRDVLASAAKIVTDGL
Procedure: as §1, §2

[4] = biological target: T4, NDM-1 (Klebsiella pneumoniae, UniProt C7C422); assay: as above; assay type: biochemical; details: inhibitor concentration as per IC50
T4 construct: made in house; host or cells: E. coli (DH5 and BL21(DE3) named)
T4 sequence (C7C422 29-270, looked up, species assumed): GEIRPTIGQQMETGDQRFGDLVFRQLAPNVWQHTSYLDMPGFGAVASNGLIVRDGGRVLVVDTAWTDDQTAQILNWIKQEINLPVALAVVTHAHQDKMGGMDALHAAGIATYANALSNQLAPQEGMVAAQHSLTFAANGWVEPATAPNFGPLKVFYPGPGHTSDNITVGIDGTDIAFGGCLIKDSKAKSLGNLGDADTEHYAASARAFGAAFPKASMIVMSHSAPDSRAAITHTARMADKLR
Procedure: as §1, §2

[5] = biological target: T5, Amp-C (Escherichia coli, UniProt P00811); assay: as above; assay type: biochemical; details: inhibitor concentration as per IC50
T5 construct: made in house; host or cells: E. coli (DH5 and BL21(DE3) named; pET-28a)
T5 sequence (P00811 20-377): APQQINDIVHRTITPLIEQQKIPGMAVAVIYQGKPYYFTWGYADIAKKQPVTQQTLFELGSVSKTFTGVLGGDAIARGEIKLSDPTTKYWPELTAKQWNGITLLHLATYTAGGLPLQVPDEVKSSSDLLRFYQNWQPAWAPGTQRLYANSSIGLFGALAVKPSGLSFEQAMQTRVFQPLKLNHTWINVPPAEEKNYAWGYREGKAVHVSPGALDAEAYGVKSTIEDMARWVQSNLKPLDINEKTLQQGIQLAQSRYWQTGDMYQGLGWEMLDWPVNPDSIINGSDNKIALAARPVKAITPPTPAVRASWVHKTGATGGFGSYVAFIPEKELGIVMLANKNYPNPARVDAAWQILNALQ
Procedure: as §1, §2

[6] = biological target: T6, TEM-1 (Escherichia coli, UniProt P62593); assay: as above; assay type: biochemical; details: inhibitor concentration as per IC50
T6 construct: made in house; host or cells: E. coli (DH5 and BL21(DE3) named; pET-28a)
T6 sequence (P62593 24-286 limits assumed): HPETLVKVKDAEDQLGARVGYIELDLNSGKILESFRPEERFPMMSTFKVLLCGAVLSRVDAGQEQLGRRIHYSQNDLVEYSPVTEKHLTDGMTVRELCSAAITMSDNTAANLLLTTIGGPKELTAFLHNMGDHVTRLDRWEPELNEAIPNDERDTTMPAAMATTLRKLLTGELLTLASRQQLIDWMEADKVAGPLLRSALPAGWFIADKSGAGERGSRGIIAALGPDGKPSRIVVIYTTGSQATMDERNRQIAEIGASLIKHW
Procedure: as §1, §2

[7] = biological target: T1, KPC-2; assay: Fluorescence quenching; assay type: binding; details: 298 K
Procedure: (§3) Fluorescence quenching can be either dynamic or static in nature. The fluorescence intensity was calculated to understand the mechanism of protein quenching from all three classes of β-lactamase with D63, D2148, and D2573. The KSV (Stern–Volmer quenching constant; [Q] is the concentration of inhibitor) of all protein-inhibitor complexes was calculated from the slope of plot Fo/F (fluorescence intensities in the absence and presence of quencher) versus [Q], whereas number of binding sites (n) and Kb values for all combinations of proteins and inhibitors were determined by the slope and intercept of plot log (Fo/F – 1) versus log[Q] (Table 9).
(§4) A Shimadzu RF-5301PC spectrofluorometer (Shimadzu Corporation, Kyoto, Japan) was used to measure the fluorescence spectra. Quenching was observed by measuring intrinsic fluorescence at 295 nm between 300 and 400 nm. The emission and excitation slits were both adjusted to 5 nm. Then, 2 μM each D2573, D2148, and D63 were added to a 3-mL sample containing 2 μM protein ([…]). All the fluorescence intensities were corrected for the inner filter effect. The determination of the number of binding sites (n) and binding constant (Kb) at 298 K temperature for all the protein-inhibitor combinations from the Stern-Volmer equation and modified Stern-Volmer equation (equations 4 and 5). (4) (F0)/F = 1 + Ksv[Q] (5) Log (F0 − F)/F= logKb + n log[Q]
(§5) Fo and F are the fluorescence intensities in the absence and presence of quencher (D63, D2148, D2573).

[8] = biological target: T2, SHV-1; assay: Fluorescence quenching; assay type: binding; details: 298 K
Procedure: as §3, §4, §5

[9] = biological target: T3, CTX-M-15; assay: Fluorescence quenching; assay type: binding; details: 298 K
Procedure: as §3, §4, §5

[10] = biological target: T4, NDM-1; assay: Fluorescence quenching; assay type: binding; details: 298 K
Procedure: as §3, §4, §5

[11] = biological target: T6, TEM-1; assay: Fluorescence quenching; assay type: binding; details: 298 K
Procedure: as §3, §4, §5

O=C(CN1C(=O)c2ccccc2S1(=O)=O)c1ccc(O)c(O)c1 [D63, 2-[2-(3,4-dihydroxyphenyl)-2-oxoethyl]-1H-1,2-benzisothiazole-1,1,3(2H)-trione]
Km or Ki ([1]; cefotaxime): 713 μΜ | kcat ([1]; cefotaxime): 0.384 S^−1 | Km or Ki ([1]; imipenem): 489.1 μΜ | kcat ([1]; imipenem): 0.39 S^−1 | Km or Ki ([1]; meropenem): 511.7 μΜ | kcat ([1]; meropenem): 0.45 S^−1 | Km or Ki ([2]; cefotaxime): 1,375 μΜ | kcat ([2]; cefotaxime): 1.621 S^−1 | Km or Ki ([2]; imipenem): 851 μΜ | kcat ([2]; imipenem): 1.525 S^−1 | Km or Ki ([2]; meropenem): 2,881 μΜ | kcat ([2]; meropenem): 1.928 S^−1 | Km or Ki ([3]; cefotaxime): 742.7 μΜ | kcat ([3]; cefotaxime): 0.7320 S^−1 | Km or Ki ([3]; imipenem): 480.5 μΜ | kcat ([3]; imipenem): 5.572 S^−1 | Km or Ki ([3]; meropenem): 228.4 μΜ | kcat ([3]; meropenem): 1.723 S^−1 | Km or Ki ([4]; cefotaxime): 410.8 μΜ | kcat ([4]; cefotaxime): 1.833 S^−1 | Km or Ki ([4]; imipenem): 258.7 μΜ | kcat ([4]; imipenem): 18.29 S^−1 | Km or Ki ([4]; meropenem): 1,052 μΜ | kcat ([4]; meropenem): 9.282 S^−1 | Km or Ki ([5]; cefotaxime): 1,522 μΜ | kcat ([5]; cefotaxime): 1.537 S^−1 | Km or Ki ([5]; imipenem): 499.22 μΜ | kcat ([5]; imipenem): 1.158 S^−1 | Km or Ki ([5]; meropenem): 553.8 μΜ | kcat ([5]; meropenem): 1.093 S^−1 | Km or Ki ([6]; cefotaxime): 1,353 μΜ | kcat ([6]; cefotaxime): 1.051 S^−1 | Km or Ki ([6]; imipenem): 673.1 μΜ | kcat ([6]; imipenem): 1.194 S^−1 | Km or Ki ([6]; meropenem): 253.5 μΜ | kcat ([6]; meropenem): 0.6169 S^−1 | n (number of binding sites) [7]: 0.33 | n (number of binding sites) [8]: 0.4791 | n (number of binding sites) [9]: 1.9313 | n (number of binding sites) [10]: 1.6673 | n (number of binding sites) [11]: 0.4298

O=C(O)c1ccccc1C(=O)N1CCN(c2nc(-c3ccccc3)ns2)CC1 [D2573, 2-{[4-(3-phenyl-1,2,4-thiadiazol-5-yl)piperazino]carbonyl}benzoic acid]
Km or Ki ([1]; cefotaxime): 549.1 μΜ | kcat ([1]; cefotaxime): 0.454 S^−1 | Km or Ki ([1]; imipenem): 878.8 μΜ | kcat ([1]; imipenem): 0.419 S^−1 | Km or Ki ([1]; meropenem): 2,786 μΜ | kcat ([1]; meropenem): 1.02 S^−1 | Km or Ki ([2]; cefotaxime): 608 μΜ | kcat ([2]; cefotaxime): 0.8431 S^−1 | Km or Ki ([2]; imipenem): 1,138 μΜ | kcat ([2]; imipenem): 0.958 S^−1 | Km or Ki ([2]; meropenem): 979 μΜ | kcat ([2]; meropenem): 1.232 S^−1 | Km or Ki ([3]; cefotaxime): 330.1 μΜ | kcat ([3]; cefotaxime): 0.9055 S^−1 | kcat ([3]; imipenem): 1.454 S^−1 | Km or Ki ([3]; meropenem): 469.8 μΜ | kcat ([3]; meropenem): 0.9091 S^−1 | Km or Ki ([4]; cefotaxime): 8,756 μΜ | kcat ([4]; cefotaxime): 4.921 S^−1 | Km or Ki ([4]; imipenem): 301.3 μΜ | kcat ([4]; imipenem): 3.875 S^−1 | Km or Ki ([4]; meropenem): 756.8 μΜ | kcat ([4]; meropenem): 14.59 S^−1 | Km or Ki ([5]; cefotaxime): 1,522 μΜ | kcat ([5]; cefotaxime): 1.5 S^−1 | Km or Ki ([5]; imipenem): 499 μΜ | kcat ([5]; imipenem): 1.158 S^−1 | Km or Ki ([5]; meropenem): 553 μΜ | kcat ([5]; meropenem): 1.09 S^−1 | Km or Ki ([6]; cefotaxime): 905.2 μΜ | kcat ([6]; cefotaxime): 1.056 S^−1 | Km or Ki ([6]; imipenem): 2,665 μΜ | kcat ([6]; imipenem): 1.454 S^−1 | Km or Ki ([6]; meropenem): 2,129 μΜ | kcat ([6]; meropenem): 1.563 S^−1 | n (number of binding sites) [7]: 1.1315 | n (number of binding sites) [8]: 0.7621 | n (number of binding sites) [9]: 0.9674 | n (number of binding sites) [10]: 0.1842 | n (number of binding sites) [11]: 0.750

O=C(c1ccccc1)C1CCN(C(=O)CN2C(=O)c3ccccc3C2=O)CC1 [D2148, 2-[2-(4-benzoylpiperidino) -2-oxoethyl]-1H-isoindole-1,3(2H)-dione]
Km or Ki ([1]; cefotaxime): 358.7 μΜ | kcat ([1]; cefotaxime): 3.293 S^−1 | Km or Ki ([1]; imipenem): 301.8 μΜ | kcat ([1]; imipenem): 3.44 S^−1 | Km or Ki ([1]; meropenem): 491 μΜ | kcat ([1]; meropenem): 2.47 S^−1 | Km or Ki ([2]; cefotaxime): 626.2 μΜ | kcat ([2]; cefotaxime): 6.751 S^−1 | Km or Ki ([2]; imipenem): 618.4 μΜ | kcat ([2]; imipenem): 5.535 S^−1 | Km or Ki ([2]; meropenem): 1,376 μΜ | kcat ([2]; meropenem): 6.436 S^−1 | Km or Ki ([3]; cefotaxime): 670.6 μΜ | kcat ([3]; cefotaxime): 838.6 S^−1 | Km or Ki ([3]; imipenem): 675.9 μΜ | kcat ([3]; imipenem): 2,720 S^−1 | Km or Ki ([3]; meropenem): 9,333 μΜ | kcat ([3]; meropenem): 17,974 S^−1 | Km or Ki ([4]; cefotaxime): 1,939 μΜ | kcat ([4]; cefotaxime): 15.88 S^−1 | Km or Ki ([4]; imipenem): 995.4 μΜ | kcat ([4]; imipenem): 20.6 S^−1 | Km or Ki ([4]; meropenem): 986.4 μΜ | kcat ([4]; meropenem): 9.201 S^−1 | Km or Ki ([5]; cefotaxime): 796.6 μΜ | kcat ([5]; cefotaxime): 3.401 S^−1 | Km or Ki ([5]; imipenem): 1,136 μΜ | kcat ([5]; imipenem): 2.631 S^−1 | Km or Ki ([5]; meropenem): 794 μΜ | kcat ([5]; meropenem): 2.637 S^−1 | Km or Ki ([6]; cefotaxime): 757.7 μΜ | kcat ([6]; cefotaxime): 6.332 S^−1 | Km or Ki ([6]; imipenem): 689.7 μΜ | kcat ([6]; imipenem): 0.9853 S^−1 | Km or Ki ([6]; meropenem): 7,537 μΜ | kcat ([6]; meropenem): 43.13 S^−1 | n (number of binding sites) [7]: 1.148 | n (number of binding sites) [8]: 0.2952 | n (number of binding sites) [9]: 1.163 | n (number of binding sites) [10]: 2.457 | n (number of binding sites) [11]: 0.2489
